Assay results as given in patent US20240238242A1, “EGCG buccal tablet and use thereof” (priority 2023, published 2024).

Columns and labels:
[1] = test system: Influenza B virus (B/Lee); experiment: Inactivation efficiency against influenza B virus B/Lee strain (residual TCID50 on MDCK cells); format: cell-based; settings: for average inactivation efficiency against virus: B/Lee virus, two experiments
[2] = test system: SARS-CoV-2 BJ-01 virus; experiment: In vitro effect of EGCG on SARS-CoV-2 BJ-01 infection (co-incubation, then Vero-E6 cells); format: cell-based; settings: 2.18 mM EGCG co-incubated 1, 2, 4 and 8 minutes at room temperature; Vero-E6, 48 hours
Text: In this experimental example, SARS-CoV-2 BJ-01 virus was provided by the Military Veterinary Research Institute, Academy of Military Medical Sciences, Academy of Military Sciences, and its Accession Number at NCBI was MT291831; Vero-E6 cells were provided by the Military Veterinary Research Institute, Academy of Military Medical Sciences, Academy of Military Sciences; and the culture medium was Dulbecco's Modified Eagle Medium, purchased from Thermo Scientific, catalog number: C11995500BT.
The incubation of drug EGCG with SARS-CoV-2 BJ-01 virus in the culture medium was designed according to the time gradient, in which the incubation time was: 1 minute, 2 minutes, 4 minutes, 8 minutes, the EGCG concentration in the incubation system was 1 mg/mL (2.18 mM), and the virus titer in the incubation system was 10^7 TCID50. After incubation, the incubation system was diluted 10 times and used to infect Vero-E6 cells. After 48 hours, the Ct value of the cell supernatant was detected.

O=C(O[C@@H]1Cc2c(O)cc(O)cc2O[C@@H]1c1cc(O)c(O)c(O)c1)c1cc(O)c(O)c(O)c1 [EGCG, Epigallocatechin gallate]
CPE test (virus replication in the cell wells) ([1]; 0.2 mM EGCG + B/Lee virus, 1 minute, first experiment, dilution factor 10^1, wells 1-10): +
CPE test (virus replication in the cell wells) ([1]; 0.2 mM EGCG + B/Lee virus, 1 minute, first experiment, dilution factor 10^2, wells 1-10): +
CPE test (virus replication in the cell wells) ([1]; 0.2 mM EGCG + B/Lee virus, 1 minute, first experiment, dilution factor 10^3, wells 1-10): +
CPE test (virus replication in the cell wells) ([1]; 0.2 mM EGCG + B/Lee virus, 1 minute, first experiment, dilution factor 10^4, wells 1-10): +
CPE test (virus replication in the cell wells) ([1]; 0.2 mM EGCG + B/Lee virus, 1 minute, first experiment, dilution factor 10^5, wells 1-10): − and +
CPE test (virus replication in the cell wells) ([1]; 0.2 mM EGCG + B/Lee virus, 1 minute, first experiment, dilution factor 10^6, wells 1-10): − and +
CPE test (virus replication in the cell wells) ([1]; 0.2 mM EGCG + B/Lee virus, 1 minute, first experiment, dilution factor 10^7, wells 1-10): −
CPE test (virus replication in the cell wells) ([1]; 0.2 mM EGCG + B/Lee virus, 1 minute, first experiment, dilution factor 10^8, wells 1-10): −
CPE test (virus replication in the cell wells) ([1]; 0.2 mM EGCG + B/Lee virus, 1 minute, second experiment, dilution factor 10^1, wells 1-10): +
CPE test (virus replication in the cell wells) ([1]; 0.2 mM EGCG + B/Lee virus, 1 minute, second experiment, dilution factor 10^2, wells 1-10): +
CPE test (virus replication in the cell wells) ([1]; 0.2 mM EGCG + B/Lee virus, 1 minute, second experiment, dilution factor 10^3, wells 1-10): +
CPE test (virus replication in the cell wells) ([1]; 0.2 mM EGCG + B/Lee virus, 1 minute, second experiment, dilution factor 10^4, wells 1-10): +
CPE test (virus replication in the cell wells) ([1]; 0.2 mM EGCG + B/Lee virus, 1 minute, second experiment, dilution factor 10^5, wells 1-10): +
CPE test (virus replication in the cell wells) ([1]; 0.2 mM EGCG + B/Lee virus, 1 minute, second experiment, dilution factor 10^6, wells 1-10): − and +
CPE test (virus replication in the cell wells) ([1]; 0.2 mM EGCG + B/Lee virus, 1 minute, second experiment, dilution factor 10^7, wells 1-10): −
CPE test (virus replication in the cell wells) ([1]; 0.2 mM EGCG + B/Lee virus, 1 minute, second experiment, dilution factor 10^8, wells 1-10): −
average inactivation efficiency against virus ([1]; 0.2 mM EGCG, 1 minute): 18.45%
CPE test (virus replication in the cell wells) ([1]; 1 mM EGCG + B/Lee virus, 1 minute, first experiment, dilution factor 10^3, wells 1-10): +
CPE test (virus replication in the cell wells) ([1]; 1 mM EGCG + B/Lee virus, 1 minute, first experiment, dilution factor 10^4, wells 1-10): +
CPE test (virus replication in the cell wells) ([1]; 1 mM EGCG + B/Lee virus, 1 minute, first experiment, dilution factor 10^5, wells 1-10): +
CPE test (virus replication in the cell wells) ([1]; 1 mM EGCG + B/Lee virus, 1 minute, first experiment, dilution factor 10^6, wells 1-10): −
CPE test (virus replication in the cell wells) ([1]; 1 mM EGCG + B/Lee virus, 1 minute, first experiment, dilution factor 10^7, wells 1-10): −
CPE test (virus replication in the cell wells) ([1]; 1 mM EGCG + B/Lee virus, 1 minute, first experiment, dilution factor 10^8, wells 1-10): −
CPE test (virus replication in the cell wells) ([1]; 1 mM EGCG + B/Lee virus, 1 minute, second experiment, dilution factor 10^3, wells 1-10): +
CPE test (virus replication in the cell wells) ([1]; 1 mM EGCG + B/Lee virus, 1 minute, second experiment, dilution factor 10^4, wells 1-10): +
CPE test (virus replication in the cell wells) ([1]; 1 mM EGCG + B/Lee virus, 1 minute, second experiment, dilution factor 10^5, wells 1-10): +
CPE test (virus replication in the cell wells) ([1]; 1 mM EGCG + B/Lee virus, 1 minute, second experiment, dilution factor 10^6, wells 1-10): − and +
CPE test (virus replication in the cell wells) ([1]; 1 mM EGCG + B/Lee virus, 1 minute, second experiment, dilution factor 10^7, wells 1-10): −
CPE test (virus replication in the cell wells) ([1]; 1 mM EGCG + B/Lee virus, 1 minute, second experiment, dilution factor 10^8, wells 1-10): −
CPE test (virus replication in the cell wells) ([1]; 1 mM EGCG + B/Lee virus, 5 minute, first experiment, dilution factor 10^2, wells 1-10): +
CPE test (virus replication in the cell wells) ([1]; 1 mM EGCG + B/Lee virus, 5 minute, first experiment, dilution factor 10^3, wells 1-10): +
CPE test (virus replication in the cell wells) ([1]; 1 mM EGCG + B/Lee virus, 5 minute, first experiment, dilution factor 10^4, wells 1-10): +
CPE test (virus replication in the cell wells) ([1]; 1 mM EGCG + B/Lee virus, 5 minute, first experiment, dilution factor 10^5, wells 1-10): +
CPE test (virus replication in the cell wells) ([1]; 1 mM EGCG + B/Lee virus, 5 minute, first experiment, dilution factor 10^6, wells 1-10): −
CPE test (virus replication in the cell wells) ([1]; 1 mM EGCG + B/Lee virus, 5 minute, first experiment, dilution factor 10^7, wells 1-10): −
CPE test (virus replication in the cell wells) ([1]; 1 mM EGCG + B/Lee virus, 5 minute, first experiment, dilution factor 10^8, wells 1-10): −
CPE test per cell well ([1]; 1 mM EGCG + B/Lee virus, 5 minute, second experiment, dilution factor 10^1, wells 1-10): +
CPE test per cell well ([1]; 1 mM EGCG + B/Lee virus, 5 minute, second experiment, dilution factor 10^2, wells 1-10): +
CPE test per cell well ([1]; 1 mM EGCG + B/Lee virus, 5 minute, second experiment, dilution factor 10^3, wells 1-10): +
CPE test per cell well ([1]; 1 mM EGCG + B/Lee virus, 5 minute, second experiment, dilution factor 10^4, wells 1-10): +
CPE test per cell well ([1]; 1 mM EGCG + B/Lee virus, 5 minute, second experiment, dilution factor 10^5, wells 1-10): + and −
CPE test per cell well ([1]; 1 mM EGCG + B/Lee virus, 5 minute, second experiment, dilution factor 10^6, wells 1-10): −
CPE test per cell well ([1]; 1 mM EGCG + B/Lee virus, 5 minute, second experiment, dilution factor 10^7, wells 1-10): −
CPE test per cell well ([1]; 1 mM EGCG + B/Lee virus, 5 minute, second experiment, dilution factor 10^8, wells 1-10): −
average inactivation efficiency against virus ([1]; 1 mM EGCG, 1 minute): 28.74%
average inactivation efficiency against virus ([1]; 1 mM EGCG, 5 minutes): 18.45%
CPE test (virus replication in the cell wells) ([1]; 5 mM EGCG + B/Lee virus, 1 minute, first experiment, dilution factor 10^4, wells 1-10): +
CPE test (virus replication in the cell wells) ([1]; 5 mM EGCG + B/Lee virus, 1 minute, first experiment, dilution factor 10^5, wells 1-10): +
CPE test (virus replication in the cell wells) ([1]; 5 mM EGCG + B/Lee virus, 1 minute, first experiment, dilution factor 10^6, wells 1-10): −
CPE test (virus replication in the cell wells) ([1]; 5 mM EGCG + B/Lee virus, 1 minute, first experiment, dilution factor 10^7, wells 1-10): −
CPE test (virus replication in the cell wells) ([1]; 5 mM EGCG + B/Lee virus, 1 minute, first experiment, dilution factor 10^8, wells 1-10): −
CPE test (virus replication in the cell wells) ([1]; 5 mM EGCG + B/Lee virus, 1 minute, second experiment, dilution factor 10^4, wells 1-10): +
CPE test (virus replication in the cell wells) ([1]; 5 mM EGCG + B/Lee virus, 1 minute, second experiment, dilution factor 10^5, wells 1-10): − and +
CPE test (virus replication in the cell wells) ([1]; 5 mM EGCG + B/Lee virus, 1 minute, second experiment, dilution factor 10^6, wells 1-10): −
CPE test (virus replication in the cell wells) ([1]; 5 mM EGCG + B/Lee virus, 1 minute, second experiment, dilution factor 10^7, wells 1-10): −
CPE test (virus replication in the cell wells) ([1]; 5 mM EGCG + B/Lee virus, 1 minute, second experiment, dilution factor 10^8, wells 1-10): −
CPE test (virus replication in the cell wells) ([1]; 5 mM EGCG + B/Lee virus, 5 minute, first experiment, dilution factor 10^4, wells 1-10): + and −
CPE test (virus replication in the cell wells) ([1]; 5 mM EGCG + B/Lee virus, 5 minute, first experiment, dilution factor 10^5, wells 1-10): + and −
CPE test (virus replication in the cell wells) ([1]; 5 mM EGCG + B/Lee virus, 5 minute, first experiment, dilution factor 10^6, wells 1-10): − and +
CPE test (virus replication in the cell wells) ([1]; 5 mM EGCG + B/Lee virus, 5 minute, first experiment, dilution factor 10^7, wells 1-10): − and +
CPE test (virus replication in the cell wells) ([1]; 5 mM EGCG + B/Lee virus, 5 minute, first experiment, dilution factor 10^8, wells 1-10): −
CPE test per cell well ([1]; 5 mM EGCG + B/Lee virus, 5 minute, second experiment, dilution factor 10^4, wells 1-10): +
CPE test per cell well ([1]; 5 mM EGCG + B/Lee virus, 5 minute, second experiment, dilution factor 10^5, wells 1-10): − and +
CPE test per cell well ([1]; 5 mM EGCG + B/Lee virus, 5 minute, second experiment, dilution factor 10^6, wells 1-10): −
CPE test per cell well ([1]; 5 mM EGCG + B/Lee virus, 5 minute, second experiment, dilution factor 10^7, wells 1-10): −
CPE test per cell well ([1]; 5 mM EGCG + B/Lee virus, 5 minute, second experiment, dilution factor 10^8, wells 1-10): −
average inactivation efficiency against virus ([1]; 5 mM EGCG, 1 minute): 52.43%
average inactivation efficiency against virus ([1]; 5 mM EGCG, 5 minutes): 36.90%
number of live viruses (virus copy number in cell supernatant) [2]: significantly reduced
